Experimental data published in patent publication US6271342A, “Sugar-modified cytostatics” (Bayer Aktiengesellschaft, priority 1995, dated 2001).
Like-named read-outs stand apart in the source and are kept apart here.

Key:
[1] = system: bone marrow parent cells of the mouse; assay: CSF-induced proliferation of bone marrow parent cells, in vitro; assay type: cell-based; details: recombinant murine GM-CSF, 7 days
Description: Bone marrow cells are flushed out of the femur of mice. 10^5 cells are incubated in McCoy SA medium (0.3% agar) together with recombinant murine GM-CSF (Genzyme; parent cell colony formation) and the substances (10^-4 to 100 μg/ml) at 37° C. and 7% CO2. 7 days later, the colonies ([…]) and clusters (17-50 cells) are counted.

[2] = system: B 16 F 10; assay: Growth inhibition test (MTT) for cytotoxic properties; assay type: cell-based, mouse; details: Table 1b
Method in brief: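 Cells in RPMI 1640 with 10% FCS pre-cultured 1 day at 37° C, then exposed to test substances in DMSO; growth checked after day 3 and day 6. Read-out by MTT, 5 h incubation, isopropanol solubilization, extinction at 540 nm.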

[3] = system: HT 29; assay: as above; assay type: cell-based, human
Method in brief: (§1)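 IC50 values come from an MTT read at 540 nm (5 h at 37 °C, 5 mg/ml MTT stock), taken on day 3 and day 6. Cells (HT 29, SW 480; 50,000 cells/ml in RPMI/10% FCS) were pre-cultured 1 day, then compound in DMSO was added.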

[4] = system: SW 480; assay: as above; assay type: cell-based, human
Method in brief: as §1

[5] = Cleavage kinetics with human blood (HPLC); assay type: in vitro ADME; details: 37° C.
Description: In Vitro Investigation of the Cleavability of the Glycoconjugates
Cleavage Kinetics With Human Blood

[6] = system: SW-480
Description: Cleavage Kinetics With Cells
(§2) 2.25 ml of PBS are incubated together with 225 μl of a cell suspension (30 mg/ml) and 25 μl of substrate stock solution (1 mg/ml in 3% dimethyl sulphoxide in PBS) at 37° C. After 1 hour and 24 hours, samples of in each case 1 ml are taken, mixed with 1 ml of ethanol and left to stand at 4° C. for 20 minutes. After centrifugation (5 minutes at 3500 rpm), 100 μl of supernatant are taken for the HPLC analysis.

[7] = system: hepatoma
Description: Cleavage Kinetics With Cells
as §2

[8] = system: SW-480; assay: Cleavage kinetics with cells (HPLC); details: Table 2a; 37° C.; * = cleavage product is N-[D-alanyl]-batracyline
Description: Cleavage Kinetics With Cells
as §2

[9] = system: hepatoma; assay: Cleavage kinetics with cells (HPLC); details: Table 2a; 37° C.; * = cleavage product is N-[D-alanyl]-batracyline
Description: Cleavage Kinetics With Cells
as §2

[10] = Acute toxicity, single administration; assay type: in vivo, nu/nu naked mice; details: for Individual dose tolerated in mg/kg of mouse, i.p.: single administration i.p., solution in dimethyl sulphoxide; for Individual dose tolerated in mg/kg of mouse, i.v.: aqueous solution
Description: Determination of the Acute Toxicity of Glycoconjugates of Batracyline (Single Administration)
The acute toxicity of the batracyline derivatives was determined on nu/nu naked mice.
The substances administered i.v., as aqueous solutions, and the substances administered i.p., as solutions in dimethyl sulphoxide, were injected once in concentrations of up to 400 mg of substance per kg of mouse.
The individual dose tolerated was calculated from the decrease in the weight of the animals up to 21 days after administration and from the number of animals surviving.

[11] = Table 1a, glycoconjugates of batracyline
[12] = Table 2a, * = cleavage product is N-[D-alanyl]-batracyline

Row | Compound | IC50 [μg/ml] CSF-induced proliferation of bone marrow parent cells of the mouse [1] [µg/mL] | IC50 [2] [µM] | IC50 ([4]; Table 1b) [µM] | % cleavage in SW-480 1 hour [8] [%] | % cleavage in SW-480 24 hours [8] [%] | IC50 [3, 11] [µM] | IC50 [4, 11] [µM] | % cleavage in hepatoma 1 hour [9] [%] | % cleavage in hepatoma 24 hours [9] [%] | individual dose of the substances which can be tolerated ([10]; single administration) | Individual dose tolerated in mg/kg of mouse, i.p. [10] | Individual dose tolerated in mg/kg of mouse, i.v. ([10]; single administration i.v.) | also measured
1 | COC1C(O)C(C)OC(Oc2ccc(NC(=S)NC(CCCCN)C(=O)NC3C=CC(C)C4CN(c5cc6c(cc5F)c(=O)c(C(=O)O)c5scc(C)n56)CC34)cc2)C1O.Cl (mixture of isomers) [Example 14.4, N-{N^α -[O-(3-O-Methyl-β-L-fucopyranosyl)-4-hydroxy-phenylamino-thiocarbonyl]-D-lysyl}-quinolone-c, hydrochloride] | 3.6 | 0.4 | 1.5 | – | – | – | – | – | – | – | – | – | IC50 ([3]; Table 1b): 1 µM
2 | CO[C@H]1[C@H](O)[C@@H](Oc2ccc(NC(=S)NCCCC[C@H](NC(=S)Nc3ccc(O[C@H]4O[C@@H](C)[C@@H](O)[C@@H](OC)[C@@H]4O)cc3)C(=O)N[C@@H](C)C(=O)NC3C=CCC4CN(c5c(F)cc6c(=O)c(C(=O)O)cn(C7CC7)c6c5Cl)CC43)cc2)O[C@@H](C)[C@H]1O (stereo partly drawn) [Example 11.2, N-{N^α,N^ε -Bis-[O-(3-O-methyl-β-L-fucosyl)-4-hydroxy-phenylamino-thiocarbonyl]-lysyl-alanyl}-quinolone-a] | 22.5 | 9 | 30 | – | – | – | – | – | – | – | – | – | % cleavage in human blood 1 hour ([5]; Table 2b): 0%; % cleavage in human blood 24 hours ([5]; Table 2b): 0%; % cleavage in SW-480 1 hour [6]: 0%; % cleavage in SW-480 24 hours [6]: 0%; % cleavage in hepatoma 1 hour [7]: 0%; % cleavage in hepatoma 24 hours [7]: 0%
3 | N-{N^α,N^ε -Bis-[O-(3-O-methyl-β-L-fucosyl)-4-hydroxy-phenylamino-thiocarbonyl]- lysyl-D-alanyl}-batracyline [Example 6.2] | – | – | – | 0 | 0 | 50 | 40 | 0 | 0 | more than 200 mg of substance per kg of mouse | > 400 mg/kg of mouse | – | acute toxicity detected ([10]; dose of 400 mg/kg, single administration): no acute toxicity
4 | N-{N^ε -[O-(3-O-Carboxymethyl-β-L-fucosyl)-4-hydroxy-phenylamino-thiocarbony l]-lysyl-D-alanyl}-batracyline, sodium salt [Example 3.9] | – | – | – | 28 | 100 | 55 | 40 | 32 | 100 | more than 200 mg of substance per kg of mouse | 200 mg/kg of mouse | 200 mg/kg of mouse | % cleavage in human blood 1 hour [5, 12]: 0%; % cleavage in human blood 24 hours [5, 12]: 54%
5 | N-{N^ε -[O-(3-O-Methyl-β-L-fucosyl)-4-hydroxy-phenylamino-thiocarbonyl]-lysy l-D-alanyl}-batracyline, trifluoroacetate [Example 3.4] | – | – | – | 74 | – | 65 | 100 | 98 | – | – | 200 mg/kg of mouse | < 100 mg/kg of mouse | animals died ([10]; single administration i.v.): 2
